Test results taken from patent US20120010177A1, “MicroRNA Modulators and Method for Identifying And Using The Same” (The Wistar Institute / North Carolina State University, priority 2008, published 2012).
Like-named read-outs stand apart in the source and are kept apart here.

Legend:
mature miR-21 = test: Quantitative RT-PCR of mature miR-21; type: cell-based, human
Text: (§1) UNG (Applied Biosystems). […] (Sigma).

Luc-Linker control = test: Luc-linker control luciferase reporter in HeLa cells; type: cell-based, human; conditions: 10 μM, relative to DMSO control
Text: (§2) MicroRNA miR-21 was selected as a target miRNA due to its involvement as an anti-apoptotic factor in cancer cells and its elevated levels in various cancers such as breast, ovarian, and lung cancer as well as glioblastoma (Chan, et al. (2005) Cancer Res. 65:6029). Lentiviral reporter constructs for miRNA activity were assembled by introducing the complementary sequences of mature miR-21 (5′-UAGCUUAUCAGACUGAUGUUGA-3′; SEQ ID NO:13), miR-30A (5′-CUUUCAGUCGGAUGUUUGCAGC-3′; SEQ ID NO:14) as a specificity control, and a linker sequence (a previously present multiple-cloning site with no detectable recognition by natural miRNAs) downstream of a luciferase reporter gene as a negative control (FIG. 1).
(§3) Luc-miR-21, Luc-miR-30A, and Luc-linker (control) were, by viral infection, introduced into HeLa cells, which express high levels of miR-21, but only low levels of miR-30A (Cheng, et al. (2005) Nucl. Acids Res. 33:1290).
(§4) It was subsequently determined whether Compound 2 was a specific inhibitor of miR-21 or whether it could interfere with the general miRNA biogenesis pathway. Thus, HeLa cells stably expressing both the miR-30 luciferase reporter construct and miR-30 were treated with Compound 2.

[1] = system: A172 cells (glioblastoma cells); test: Cell viability assay, A172 cells, alone or with antiproliferative agent; type: cell-based; conditions: Homo sapiens, A 172
Text: (§5) In these assays, A172 cells (glioblastoma cells) were contacted with a miR-21 inhibitor either alone or in combination with a conventional antiproliferative agent (i.e., 5-fluorouracil or curcumin). At the concentrations indicated, no toxic effects on HEK293T (human embryonic kidney) cells were observed.

[2] = system: HCT116 colon cancer cells; test: Cell proliferation of HCT116 cells, drug combinations; type: cell-based, human
Text: The % activity indicates % live cell activity.

mature miR-93 = test: Quantitative RT-PCR of mature miR-93; type: cell-based, human
Text: as §1

mature miR-30 = test: Quantitative RT-PCR of mature miR-30; type: cell-based, human
Text: as §1

[3] = system: primary miR-21 (pri-miR-21); test: Quantitative RT-PCR of primary miR-21; type: cell-based, human
Text: as §1

[4] = system: HEK293T (human embryonic kidney) cells; test: Cell viability assay, HEK293T cells; type: cell-based; conditions: 10 μM Compound
Text: as §5

miR-30 = miR-30 luciferase reporter in HeLa cells stably expressing miR-30; type: cell-based, human; conditions: HeLa cells stably expressing miR-30 reporter and miR-30, 10 μM
Text: as §2
The specificity of the reporter system was tested by assaying cells which contained both the Luc-miR-30A reporter and a construct expressing exogenous miR-30.
as §4

miR-21 = miR-21 luciferase reporter (Luc-miR-21) screening assay in HeLa cells; type: cell-based, human; conditions: HeLa Luc-miR-21 reporter
Text: as §2, §3
To illustrate the method of the present invention, a primary screen of >1000 compounds was conducted. The library was composed of a collection of novel compounds and the Library of Pharmacologically Active Compounds (LOPAC library, Sigma-Aldrich, St Louis, Mo.). All compounds were stored at a 10 mM concentration in DMSO to keep the DMSO concentration in the actual screen at 0.1% thereby minimizing toxicity. HeLa cells stably expressing the miR-reporter were treated with DMSO ranging from 0.1-1%. Luciferase signals were determined 48 hours after the treatment.
HeLa cells (2500 cells) were plated in each well of 384-well plate 24 hour before the addition of compounds. Compounds at 10 μM final concentration were added to each well. Luciferase signal were determined 48 hours after compound treatment. Using this screening assay, compound 1 was identified as a miR-21 antagonist.

[5] = MDA-MB-231, MCF-7 and A172 cell lines
[6] = HeLa cells, 10 μM, relative to DMSO

EC50 (miR-21; Homo sapiens, concentration dependent, read-out: EC50 of increase of luciferase signal): 2000 nM
SMILES: C#CCNC(=O)c1ccc(/N=N/c2ccccc2)cc1 [Compound 2, (E)-4-(Phenyldiazenyl)-N-(prop-2-ynyl)benzamide]
mature miR-21 level (mature miR-21; [5]): suppressed | miR-21 RT PCR* (% Decrease as compared to DMSO control) (mature miR-21; Table 2): 22% | luciferase signal in HeLa cells expressing the Luc-Linker control (Luc-Linker control): did not affect the luciferase signal | viability at 10 µM ([1]; 10 μM Compound + 5FU 0.5 μM, read-out: Cell Viability A172 Cells, Compound + 5FU (0.5 μM)): 8% | viability at 10 µM ([1]; 10 μM Compound + Curcumin 10 μM, read-out: Cell Viability A172 Cells, Compound + Curcumin (10 μM)): 12% | viability at 10 µM ([1]; 10 μM Compound alone, read-out: Cell Viability A172 Cells, Compound): 84% | proliferation of HCT116 colon cancer cells, combination with 5-FU ([2]; FIG. 5A): synergistically decrease | proliferation of HCT116 colon cancer cells, combination with Curcumin ([2]; FIG. 5B): synergistically decrease | level of endogenous mature miR-93 (mature miR-93; [6]): not reduced | mature miR-93 level (mature miR-93; [5]): no effect | mature miR-93 level, % of DMSO control (mature miR-93; Table 2): 115% | level of exogenous mature miR-30 (mature miR-30; [6]): not reduced | mature miR-30 level (mature miR-30; [5]): no effect | mature miR-30 level (% of DMSO control) (mature miR-30; Table 2): 110% | reduction of primary miR-21 (pri-miR-21) level ([3]; HeLa cells, 10 μM, compared to DMSO control): 87% | primary miR-21 level [3, 5]: suppressed | Cell Viability HEK293T Cells [4]: 98% | luciferase signal of miR-30 luciferase reporter (miR-30): no increase of the luciferase signal was detected | fold increase of the luciferase signal (miR-21; 10 μM): 5 fold | increase of the luciferase signal (miR-21; 10 μM, 48 hours, compared to untreated cells): 485%
